# Measurements as given in patent publication US7989464B2, “mGluR1 antagonists as therapeutic agents” (Schering Corporation, priority 2004, dated 2011).
# Target: T1, hmGluR1 receptor (Homo sapiens, UniProt Q13255)
# T1 construct: expressed in transfected cells
# Experiment: IC50 determination: intracellular calcium mobilization (FLIPR) upon Quisqualate stimulation in CHO cells stably expressing hmGluR1
# Format: cell-based
# Conditions: against Quisqualate 1 μM (EC80), FLIPR calcium mobilization, read-out: IC50 Class
# How it was run: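 CHO cells stably expressing hmGluR1 were kept overnight in DMEM high glucose with GPT and 1 mM pyruvate, then loaded 2 h with Calcium 3 dye.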
# T1 sequence (Q13255 19-1194): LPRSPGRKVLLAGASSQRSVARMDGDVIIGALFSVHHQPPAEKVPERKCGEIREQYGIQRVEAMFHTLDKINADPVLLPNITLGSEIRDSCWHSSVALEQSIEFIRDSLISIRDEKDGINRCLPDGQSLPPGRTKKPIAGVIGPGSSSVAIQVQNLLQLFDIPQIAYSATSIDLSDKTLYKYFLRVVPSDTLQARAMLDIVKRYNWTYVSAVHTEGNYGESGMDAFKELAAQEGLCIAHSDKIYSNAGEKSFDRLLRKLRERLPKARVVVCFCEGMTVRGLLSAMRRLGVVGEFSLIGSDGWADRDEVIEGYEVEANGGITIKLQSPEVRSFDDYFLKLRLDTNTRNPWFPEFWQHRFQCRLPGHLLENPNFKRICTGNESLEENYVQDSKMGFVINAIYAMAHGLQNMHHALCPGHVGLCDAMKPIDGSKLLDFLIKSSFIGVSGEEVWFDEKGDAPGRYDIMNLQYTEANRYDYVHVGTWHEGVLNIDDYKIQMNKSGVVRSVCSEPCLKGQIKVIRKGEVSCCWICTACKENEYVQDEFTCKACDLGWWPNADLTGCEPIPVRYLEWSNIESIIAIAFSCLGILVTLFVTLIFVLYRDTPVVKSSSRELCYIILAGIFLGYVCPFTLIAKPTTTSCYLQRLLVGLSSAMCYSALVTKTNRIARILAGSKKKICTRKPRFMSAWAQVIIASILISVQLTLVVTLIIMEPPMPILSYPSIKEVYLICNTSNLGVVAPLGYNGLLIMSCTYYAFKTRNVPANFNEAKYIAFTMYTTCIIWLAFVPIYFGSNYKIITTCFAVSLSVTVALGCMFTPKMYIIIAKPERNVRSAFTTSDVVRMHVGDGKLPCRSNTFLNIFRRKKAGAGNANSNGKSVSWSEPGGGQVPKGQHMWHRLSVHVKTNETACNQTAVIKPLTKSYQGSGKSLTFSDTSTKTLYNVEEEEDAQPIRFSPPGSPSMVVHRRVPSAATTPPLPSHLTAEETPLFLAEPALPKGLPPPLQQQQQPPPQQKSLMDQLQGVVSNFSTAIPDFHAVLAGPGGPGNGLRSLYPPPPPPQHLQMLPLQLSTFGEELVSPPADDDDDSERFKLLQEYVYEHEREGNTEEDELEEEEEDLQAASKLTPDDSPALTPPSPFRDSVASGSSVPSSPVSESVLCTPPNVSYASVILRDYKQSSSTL
row,Structure (SMILES),IC50 [nM]
1,O=c1c2sc3nccc(Oc4ccccc4)c3c2ncn1-c1ccc(Cl)cc1 [compound 176],> 1000
2,CC#Cc1ccnc2sc3c(=O)n(-c4ccc(Cl)cc4)cnc3c12 [compound 177],> 1000
3,O=c1c2sc3nccc(CC4CC4)c3c2ncn1-c1ccc(Cl)cc1 [compound 179],150 to 1000
4,COc1ccnc2sc3c(=O)n(-c4ccc(F)cc4)cnc3c12 [compound 180],150 to 1000
5,CC(=O)c1ccnc2sc3c(=O)n(-c4ccc(Cl)cc4)cnc3c12 [compound 184],50 to 150
6,CC(O)c1ccnc2sc3c(=O)n(-c4ccc(Cl)cc4)cnc3c12 (stereo not shown) [compound 185],50 to 150
7,CC(C)(O)c1ccnc2sc3c(=O)n(-c4ccc(Cl)cc4)cnc3c12 [compound 186],> 1000
8,O=c1c2sc3nccc(C4CC4)c3c2ncn1-c1ccc(Cl)cc1 [compound 187],< 50
9,CNc1c(Br)cnc2sc3c(=O)n(-c4ccc(Cl)cc4)cnc3c12 [compound 188],< 50
10,CNc1c(C#N)cnc2sc3c(=O)n(-c4ccc(Cl)cc4)cnc3c12 [compound 189],50 to 150
11,CCCCOc1ncnc2sc3c(=O)n(-c4ccc(OC)cc4)cnc3c12 [compound 191],> 1000
12,COc1ccc(-n2cnc3c(sc4ncc(F)c(N(C)C)c43)c2=O)cc1 [compound 192],< 50
13,CNc1ccnc2sc3c(=O)n(-c4ccc(Cl)cc4)cnc3c12 [compound 193],< 50
14,COc1ccc(-n2cnc3c(sc4ncc(C#N)c(N)c43)c2=O)cc1 [compound 194],150 to 1000
15,COc1ccc(-n2cnc3c(sc4nccc(Cl)c43)c2=O)cc1 [compound 195],150 to 1000
16,Nc1c(Br)cnc2sc3c(=O)n(-c4ccc(Cl)cc4)cnc3c12 [compound 196],< 50
17,COc1ccc(-n2cnc3c(sc4ncc(Cl)c(N(C)C)c43)c2=O)cc1 [compound 197],< 50
18,CNc1c(Cl)cnc2sc3c(=O)n(-c4ccc(OC)cc4)cnc3c12 [compound 198],< 50
19,CN(C)c1c(Cl)cnc2sc3c(=O)n(-c4ccc(Cl)cc4)cnc3c12 [compound 199],< 50
20,CNc1c(Cl)cnc2sc3c(=O)n(-c4ccc(Cl)cc4)cnc3c12 [compound 200],< 50
21,CCc1ncnc2sc3c(=O)n(-c4ccc(OC)cc4)cnc3c12 [compound 201],< 50
22,CCc1ncnc2sc3c(=O)n(-c4ccc(Cl)cc4)cnc3c12 [compound 202],< 50
23,CN(C)c1ccnc2sc3c(=O)n(-c4ccc(OS(C)(=O)=O)cc4)cnc3c12 [compound 204],50 to 150
24,CNc1c(CNC2CCC2)cnc2sc3c(=O)n(-c4ccc(OC)cc4)cnc3c12 [compound 208],150 to 1000

# Same assay, conditions: against Quisqualate 1 μM (EC80), FLIPR calcium mobilization, read-out: mGluR1 IC50
row,Structure (SMILES),IC50 [nM]
1,CNc1ccnc2sc3c(=O)n(-c4ccc(Cl)cc4)cnc3c12 [compound 193],0.18
